Reference: patent US20190375778A1, “ADENOSINE DERIVATIVES FOR USE IN THE TREATMENT OF CANCER” (NuCana plc, priority 2016, published 2019)

How the values were obtained:
[1] = system: Jurkat; assay: CellTiterGlo viability assay, Jurkat; format: cell-based; details: Homo sapiens, CellTiterGlo, 72 hrs, read-out: IC50 Jurkat
Description: (§1) In vitro viability assay were performed to assess the effects of compounds on cell viability in selected cell lines over ˜72 hrs using the CellTiterGlo (CTG, Promega-G7573) assay. The tests were performed in duplicates with treatment of compounds at 9 points, 3.16 folds titration in 96 well plates over ˜72 hrs. The compound starting concentrations were 198 μM. Cell viability assay using CellTiterGlo in 96-well plate were performed. Compound treatment 72 hrs, standard growth conditions, duplicates. Compounds were dissolved to 40 mM with thawed […]. Compounds were serially diluted at 3.16 fold in thawed DMSO, and warmed to 37° C. before being dissolved in media (2 μl+200 μl). After compounds were dissolved in media, media containing compounds were warmed to 37° C. in incubator and then compounds in media were added to cell plates (50 μl+50 μl) in duplicates. The compounds' final concentrations were from […] to 19.9 nM. All compound solubilities were checked and recorded again, then the plates were transferred to CO2 tissue culture incubator immediately and incubated for 3 days. DMSO final concentration is 0.5%.

[2] = system: BxPC-3; assay: CellTiterGlo viability assay, BxPC-3; format: cell-based; details: Homo sapiens, BXPC-3; CellTiterGlo, 72 hrs; read-out: IC50 BxPC-3
Description: as §1

[3] = system: CCRFCEM; assay: CellTiterGlo viability assay, CCRFCEM; format: cell-based; details: for IC50: CellTiterGlo, 72 hrs, read-out: IC50 CCRFCEM
How it was run: (§2)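 Duplicate 9-point dose series (3.16-fold steps, highest final level 198 μM) were applied to cells kept in standard culture conditions for ~72 hrs. Endpoint: CellTiterGlo luminescence.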

[4] = system: RL; assay: CellTiterGlo viability assay, RL; format: cell-based; details: for IC50: CellTiterGlo, 72 hrs, read-out: IC50 RL
How it was run: as §2

[5] = system: Z138; assay: CellTiterGlo viability assay, Z138; format: cell-based; details: for IC50: CellTiterGlo, 72 hrs, read-out: IC50 Z138
Description: as §1

[6] = system: HepG2; assay: CellTiterGlo viability assay, HepG2; format: cell-based; details: for IC50: CellTiterGlo, 72 hrs, read-out: IC50 HepG2
Description: as §1

[7] = system: RPMI-8226; assay: CellTiterGlo viability assay, RPMI-8226; format: cell-based, Human; details: for IC50: CellTiterGlo, 72 hrs, read-out: IC50 RPMI-8226
How it was run: as §2

[8] = system: NCI-H929; assay: CellTiterGlo viability assay, NCI-H929; format: cell-based; details: Homo sapiens, NCI-H929; CellTiterGlo, 72 hrs; read-out: IC50 NCI-H929
How it was run: as §2

[9] = system: SW620; assay: CellTiterGlo viability assay, SW620; format: cell-based; details: Homo sapiens, SW-620; CellTiterGlo, 72 hrs; read-out: IC50 SW620
Description: as §1

[10] = system: HL-60; assay: CellTiterGlo viability assay, HL-60; format: cell-based; details: for IC50: CellTiterGlo, 72 hrs, read-out: IC50 HL-60
How it was run: as §2

[11] = system: K562; assay: CellTiterGlo viability assay, K562; format: cell-based; details: for IC50: CellTiterGlo, 72 hrs, read-out: IC50 K562
How it was run: as §2

[12] = system: THP-1; assay: CellTiterGlo viability assay, THP-1; format: cell-based; details: Homo sapiens, THP-1; CellTiterGlo, 72 hrs; read-out: IC50 THP-1
Description: as §1

[13] = system: Murine leukemia L1210; assay: Cell proliferation (Coulter count) assay, L1210; format: cell-based; details: Mus musculus, 48 h, read-out: absolute IC50, L1210
How it was run: (§3)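 Cells grown in DMEM with 10% FBS. HeLa seeded at 10 000 cells/well, compound added after 24 h, counted day 5; L1210 and CEM seeded at 60 000 cells/well with compound, counted after 48 h and 72 h respectively. IC50 is concentration halving proliferation by Coulter count.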

[14] = system: MCF7; assay: CellTiterGlo viability assay, MCF7; format: cell-based; details: for IC50: CellTiterGlo, 72 hrs, read-out: IC50 MCF7
Description: as §1

[15] = system: HT29; assay: CellTiterGlo viability assay, HT29; format: cell-based; details: for IC50: CellTiterGlo, 72 hrs, read-out: IC50 HT29
Description: as §1

[16] = system: MV4-11; assay: CellTiterGlo viability assay, MV4-11; format: cell-based; details: Homo sapiens, MV4-11; CellTiterGlo, 72 hrs; read-out: IC50 MV4-11
How it was run: as §2

[17] = system: human T-lymphocyte CEM; assay: Cell proliferation (Coulter count) assay, CEM; format: cell-based; details: 72 h, read-out: absolute IC50, CEM
How it was run: as §3

[18] = system: MiaPaCa-2; assay: CellTiterGlo viability assay, MiaPaCa-2; format: cell-based; details: for IC50: CellTiterGlo, 72 hrs, read-out: IC50 MiaPaCa-2
Description: as §1

[19] = system: MOLT-4; assay: CellTiterGlo viability assay, MOLT-4; format: cell-based; details: for IC50: CellTiterGlo, 72 hrs, read-out: IC50 MOLT-4
Description: as §1

[20] = system: HEL92.1.7; assay: CellTiterGlo viability assay, HEL92.1.7; format: cell-based; details: for IC50: CellTiterGlo, 72 hrs, read-out: IC50 HEL92.1.7
How it was run: as §2

[21] = system: KG-1; assay: CellTiterGlo viability assay, KG-1; format: cell-based; details: Homo sapiens, KG-1; CellTiterGlo, 72 hrs; read-out: IC50 KG-1
How it was run: as §2

[22] = system: HS445; assay: CellTiterGlo viability assay, HS445; format: cell-based; details: for IC50: CellTiterGlo, 72 hrs, read-out: IC50 HS445
Description: as §1

Nc1ncnc2c1nc(Cl)n2[C@@H]1O[C@H](COP(=O)(NCC(=O)OCc2ccccc2)NCC(=O)OCc2ccccc2)C(O)C1O (stereo partly shown) [Compound AC, 8-Chloroadenosine 5′-O-bis(benzyloxy-glycin-N-yl) phosphate]
IC50 [1]: 0.1 to 5 µM
IC50 [2]: 5 to 15 µM
IC50 ([3]; Homo sapiens, CCRF-CEM): 0.1 to 5 µM
IC50 ([4]; Homo sapiens, RL): 0.1 to 5 µM
IC50 ([5]; Homo sapiens, Z-138): 0.1 to 5 µM
IC50 ([6]; Homo sapiens, HepG2): 0.1 to 5 µM
IC50 ([7]; Homo sapiens, RPMI-8226): 0.1 to 5 µM
IC50 [8]: 0.1 to 5 µM
IC50 [9]: 0.1 to 5 µM
IC50 ([10]; Homo sapiens, HL-60): 0.1 to 5 µM
IC50 ([11]; Homo sapiens, K562): 0.1 to 5 µM
IC50 [12]: 0.1 to 5 µM
IC50 [13]: 0.1 to 5 µM
IC50 ([14]; Homo sapiens, MCF7): 0.1 to 5 µM
IC50 ([15]; Homo sapiens, HT-29): 0.1 to 5 µM
IC50 [16]: 0.1 to 5 µM
IC50 [17]: 0.1 to 5 µM
IC50 ([18]; Homo sapiens, MIA PaCa-2): 0.1 to 5 µM
IC50 ([19]; Homo sapiens, MOLT-4): 0.1 to 5 µM
IC50 ([20]; Homo sapiens, HEL 92.1.7): 0.1 to 5 µM
IC50 [21]: 0.1 to 5 µM
IC50 ([22]; Hs 445): 5 to 15 µM

Nc1ncnc2c1nc(Cl)n2[C@@H]1O[C@H](CO)[C@@H](O)[C@H]1O [8-chloroadenosine, 8-Chloroadenosine, reference compound]
IC50 [1]: 0.1 to 5 µM
IC50 [2]: 5 to 15 µM
Top in. % CCRF-CEM [3]: 82.3%
IC50 ([3]; Homo sapiens, CCRF-CEM): 0.1 to 5 µM
EC50 ([3]; Homo sapiens, CCRF-CEM, read-out: Ab EC50 (μM) CCRF-CEM): 2.27 µM
Top in. % RL [4]: 87.3%
IC50 ([4]; Homo sapiens, RL): 5 to 15 µM
EC50 ([4]; Homo sapiens, RL, read-out: Ab EC50 (μM) RL): 4.39 µM
Top in. % Z-138 [5]: 88.7%
IC50 ([5]; Homo sapiens, Z-138): 0.1 to 5 µM
EC50 ([5]; Homo sapiens, Z-138, read-out: Ab EC50 (μM) Z-138): 1.44 µM
Top in. % HepG2 [6]: 78.5%
IC50 ([6]; Homo sapiens, HepG2): 0.1 to 5 µM
EC50 ([6]; Homo sapiens, HepG2, read-out: Ab EC50 (μM) HepG2): 1.13 µM
Top in. % RPMI-8226 [7]: 96.2%
IC50 ([7]; Homo sapiens, RPMI-8226): 0.1 to 5 µM
EC50 ([7]; Homo sapiens, RPMI-8226, read-out: Ab EC50 (μM) RPMI-8226): 1.34 µM
IC50 [8]: 0.1 to 5 µM
IC50 [9]: 0.1 to 5 µM
Top in. % HL-60 [10]: 97.1%
IC50 ([10]; Homo sapiens, HL-60): 0.1 to 5 µM
EC50 ([10]; Homo sapiens, HL-60, read-out: Ab EC50 (μM) HL-60): 10.2 µM
Top in. % K562 [11]: 82.0%
IC50 ([11]; Homo sapiens, K562): 0.1 to 5 µM
EC50 ([11]; Homo sapiens, K562, read-out: Ab EC50 (μM) K562): 11.8 µM
IC50 [12]: 0.1 to 5 µM
IC50 [13]: 0.1 to 5 µM
Top in. % MCF7 [14]: 79.6%
IC50 ([14]; Homo sapiens, MCF7): 0.1 to 5 µM
EC50 ([14]; Homo sapiens, MCF7, read-out: Ab EC50 (μM) MCF7): 1.33 µM
Top in. % HT29 [15]: 80.2%
IC50 ([15]; Homo sapiens, HT-29): 0.1 to 5 µM
EC50 ([15]; Homo sapiens, HT-29, read-out: Ab EC50 (μM) HT29): 1.35 µM
IC50 [16]: 0.1 to 5 µM
IC50 [17]: 0.1 to 5 µM
Top in. % MiaPa-Ca-2 [18]: 86.2%
IC50 ([18]; Homo sapiens, MIA PaCa-2): 0.1 to 5 µM
EC50 ([18]; Homo sapiens, MIA PaCa-2, read-out: Ab EC50 (μM) MiaPa-Ca-2): 0.44 µM
Top in. % MOLT-4 [19]: 76.0%
IC50 ([19]; Homo sapiens, MOLT-4): 0.1 to 5 µM
EC50 ([19]; Homo sapiens, MOLT-4, read-out: Ab EC50 (μM) MOLT-4): 3.27 µM
Top in. % HEL92.1.7 [20]: 96.4%
IC50 ([20]; Homo sapiens, HEL 92.1.7): 0.1 to 5 µM
EC50 ([20]; Homo sapiens, HEL 92.1.7, read-out: Ab EC50 (μM) HEL92.1.7): 2.2 µM
IC50 [21]: 0.1 to 5 µM
Top in. % HS445 [22]: 78.1%
IC50 ([22]; Hs 445): 5 to 15 µM
EC50 ([22]; Hs 445, read-out: Ab EC50 (μM) HS445): 4.5 µM
